# Measured values published in PMC12300835, “Geographic Influence and Metabolomics-Driven Discovery of 5-Alpha Reductase Inhibitors in Tectona grandis L.f. (Teak) Leaves” (Molecules, 2025).
# Tests used:
# [1] = biological target: T1, S5AR enzyme derived from LNCaP cells (Homo sapiens, UniProt P18405); assay: S5AR inhibition assay (DHT production quantified by LC-MS); format: biochemical; conditions: read-out: S5AR percentage inhibition
# T1 sequence (P18405 1-259): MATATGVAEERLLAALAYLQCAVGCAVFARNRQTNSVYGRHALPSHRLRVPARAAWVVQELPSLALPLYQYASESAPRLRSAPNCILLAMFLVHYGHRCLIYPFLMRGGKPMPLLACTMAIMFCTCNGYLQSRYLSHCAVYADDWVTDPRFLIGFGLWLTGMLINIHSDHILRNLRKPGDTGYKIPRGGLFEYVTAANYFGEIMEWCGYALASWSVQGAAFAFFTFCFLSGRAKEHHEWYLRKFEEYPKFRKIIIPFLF
# [2] = biological target: T1, S5AR enzyme derived from LNCaP cells; conditions: taken from previous publication; read-out: S5AR Inhibitory Activity (IC50); cited from earlier work
compound,measurement,setting,value
COc1cc(/C=C/C(=O)CC(=O)/C=C/c2ccc(O)c(OC)c2)ccc1O [Curcumin],inhibition at 50 µg/mL,[1],92.73 ± 0.14%
CC(C)(C)NC(=O)[C@H]1CC[C@H]2[C@@H]3CC[C@H]4NC(=O)C=C[C@]4(C)[C@H]3CC[C@]12C [Finasteride],IC50,[2],760 ± 30 nM
"CC1=C(CC[C@@H](C)CC(=O)O)[C@@]2(C)CCCC(C)(C)C2CC1=O (stereo partly drawn) [Compound 2, 7-Oxo-8-labden-15-oic acid]",inhibition at 300 µM,[1]; final concentration of 300 µM,41.4%
